Assay results taken from patent US5428058A, “Phospholipase A2 inhibitors” (American Home Products Corporation, priority 1994, dated 1995).
Where “and” joins values, the source holds several entries; their conditions need not be identical. Equal entries are not always repeated.

Key:
[1] = test system: tetradecanoylphorbol acetate (TPA) induced ear edema; test: tetradecanoylphorbol acetate (TPA) induced ear edema in mice; format: in vivo, mouse (Webster); set-up: activity in TPA ear edema test: dose or concentration left out as unconfirmed; conditions: for Percent Inhibition TPA Ear Edema: 30 min after TPA, measured 4 hrs after TPA
Procedure: Representative compounds of this invention were evaluated in an in vivo standard pharmacological test procedure that measured the effect of the representative compounds on dermal inflammation, as measured by the prevention of tetradecanoylphorbol acetate (TPA) induced car edema in Webster mice. This test procedure was carried out as follows.
Mice were placed into plastic boxes in groups of six. Eight groups of mice received TPA topically on the right ear. TPA was dissolved in acetone at a concentration of 100 ug/ml. TPA was applied to the right ear by the means of an automatic pipette. Volumes of 10 ul were applied to the inner and outer surfaces of the ear. Each mouse received 2 ug/ear TPA. The left ear (control) received acetone delivered in the same manner. The compounds to be evaluated were given orally 30 min after treatment with TPA.
Measurements were taken with Oditest calipers, 0-10 mm with 0.01 graduations. The right and left cars were measured 4 hrs after TPA-induced inflammation.
The difference between right and left car thickness was calculated and the significance was determined by a one way analysis of variance with Dunnet's comparisons to control (P=0.05). Drug effects are expressed as a percent change from control values according to the following formula. [formula]

[2] = target: T1, 5-lipoxygenase (Mus musculus, UniProt P48999); test: 5-lipoxygenase inhibition (LTC4 production) in resident murine peritoneal macrophages; format: cell-based, mouse (Swiss Webster)
T1 construct: Resident peritoneal macrophages were collected from female Swiss Webster mice; endogenous in cells; host or cells: resident peritoneal macrophages of female Swiss Webster mice
T1 sequence (P48999 1-674): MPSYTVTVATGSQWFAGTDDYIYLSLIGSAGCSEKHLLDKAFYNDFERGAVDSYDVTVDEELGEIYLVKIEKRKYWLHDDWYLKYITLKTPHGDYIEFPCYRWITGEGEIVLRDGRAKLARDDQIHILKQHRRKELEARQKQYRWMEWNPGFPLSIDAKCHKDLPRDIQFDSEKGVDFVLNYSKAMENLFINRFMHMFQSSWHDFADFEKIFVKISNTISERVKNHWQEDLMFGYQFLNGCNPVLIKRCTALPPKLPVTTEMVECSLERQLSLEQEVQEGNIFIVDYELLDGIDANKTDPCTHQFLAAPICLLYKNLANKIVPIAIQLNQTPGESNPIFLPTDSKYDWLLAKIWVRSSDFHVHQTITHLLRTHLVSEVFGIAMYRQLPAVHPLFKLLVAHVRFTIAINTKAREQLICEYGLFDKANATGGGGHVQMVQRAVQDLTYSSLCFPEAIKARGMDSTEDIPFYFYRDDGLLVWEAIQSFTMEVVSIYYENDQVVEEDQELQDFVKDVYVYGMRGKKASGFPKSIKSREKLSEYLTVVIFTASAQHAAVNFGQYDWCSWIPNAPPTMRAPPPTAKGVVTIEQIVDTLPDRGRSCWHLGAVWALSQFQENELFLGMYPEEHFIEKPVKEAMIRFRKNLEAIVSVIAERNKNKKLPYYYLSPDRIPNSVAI
Procedure: (§1) The ability of the compounds of the invention to act as inhibitors of the enzymes 5-lipoxygenase and cyclooxygenase was evaluated in the resident murine peritoneal macrophage standard pharmacological test procedure. This test procedure was carried out as follows.
(§2) Resident peritoneal macrophages were collected from female Swiss Webster mice (49 days old, 20-25 gms, Buckshire) by lavaging with 7-8 ml Hanks Balanced Salt Solution (HBSS) without Ca^++ and Mg^++ (GIBCO). The lavage fluid from several mice was pooled and centrifuged at 4° C. for 10 minutes at 400 xg. The cell pellet was resuspended in Medium 199 (GIBCO) with HEPES buffer containing 100 μg/ml gentamicin. Two ml of the cell suspension (4×10^6 cells) were then plated on 35 mm culture dishes (Nunc).
A macrophage monolayer was established after a 1-1.5 hour incubation of the cells at 37° C. in an atmosphere of […] and 5% CO2. The monolayers were washed 2× with 2 ml HBDSS, containing Ca^++ and Mg^++ after which 2 ml Medium 199 supplemented with 10% freshly thawed heat-inactivated fetal bovine serum and 100 μg/ml gentamicin was added for an overnight incubation.
Residual serum and cellular debris were removed from the monolayers by washing 3× with 2 ml HBSS containing Ca^++ and Mg^++. Macrophages were preincubated for 5 minutes with 1 ml serum-free M199 containing 10 μl dimethyl sulfoxide (DMSO) vehicle or test compound prior to cell activation with zymosan ([…]) or arachidonic acid (AA) (2 μM). After 2 hours, the supernatants were removed and either assayed for LTC4 and PGE2 by radioimmunoassay (RIA) directly or stored at -20° C. In all cases, results are expressed as ng metabolite/4×10^6 cells.
Calculations: The raw data were converted to ng metabolite/4-10^6 cells using a standard curve. Results were then expressed as percent inhibition of zymosan induced, leukotriene or prostaglandin synthesis (control) using the following equation: [formula] REFERENCE COMPOUNDS: The compounds used are listed below.

[3] = test system: cyclooxygenase; test: cyclooxygenase inhibition (PGE2 production) in resident murine peritoneal macrophages; format: cell-based, mouse (Swiss Webster); conditions: dose 0.5 μM; mouse macrophages, zymosan induced
Procedure: as §1, §2
A macrophage monolayer was established after a 1-1.5 hour incubation of the cells at 37° C. in an atmosphere of […] and 5% CO2. […]
Residual serum and cellular debris were removed from the monolayers by washing 3× with 2 ml HBSS containing Ca^++ and Mg^++. […] In all cases, results are expressed as ng metabolite/4×10^6 cells.
Calculations: The raw data were converted to ng metabolite/4-10^6 cells using a standard curve. Results were then expressed as percent inhibition of zymosan induced, leukotriene or prostaglandin synthesis (control) using the following equation: [formula] […]

[4] = dose 0.1 μM, mouse macrophages, zymosan induced
[5] = mouse macrophages, zymosan induced

Row | inhibition at 0.5 µM [2, 5] | SMILES | PGE2 % Inhibition [3] | Percent Inhibition TPA Ear Edema ([1]; 80 mg/kg p.o.) | Percent Inhibition TPA Ear Edema ([1]; 160 mg/kg p.o.) | further results
1 |  | COc1ccc2c(c1)c(CC(=O)O)c(C)n2C(=O)c1ccc(Cl)cc1 [Indomethacin, reference compound] |  |  |  | activity in TPA ear edema test [1]: inactive
2 | 92% | O=C(CC[C@@H]1CC[C@H]2CCCC[C@@H]2C1)C1=C(O)CSC1=O (relative stereo) [Example 2, 3-[3-[(2α,4aα,8aβ)-Decahydro-naphthalene-2-yl]-propionyl]-4-hydroxy-2-(5H)thiophenone] | 80% and 85% | 21% | 66% | LTC4 % Inhibition [2, 4]: 37%; inhibition at 0.1 µM [2, 4]: 43%
3 |  | CCCCCC#CCC#CCC#CCC#CCCCC(=O)O [ETYA, reference compound] |  |  |  | IC50 [2]: 440 nM
4 |  | NC1=NN(c2cccc(C(F)(F)F)c2)CC1 [BW 755c, reference compound] |  |  |  | ED50 ([1]; Mus musculus, 4 h, oral, TPA-induced ear edema, mice): 88 mg/kg
5 | 59% | O=C(CC[C@@H]1CC[C@H]2CCCC[C@@H]2C1)C1=C(O)COC1=O (relative stereo) [Example 1, 3-[3-[(2α,4aα,8aβ)-Decahydro-naphthalene-2-yl]-propionyl]-4-hydroxy-2-(5H) -furanone] | 54% | 19% | 49% | 
